Reference: patent EP3928779A1 (Chugai Seiyaku Kabushiki Kaisha, priority 2014, dated 2016)

Test system: rat small-intestinal brush border membrane vesicles
Assay: Inhibitory effect on 33PO4 uptake into rat small-intestinal brush border membrane vesicles (rapid filtration method)
Format: biochemical
Conditions: 33PO4 uptake into rat small-intestinal BBMVs; test compound 1 µM; reacted for 60 seconds
Procedure: Brush border membrane vesicles (BBMVs) were prepared using the upper region of the small intestine of each Wistar female rat (4-5 weeks old). […] The ^33PO4 transport activity of the small-intestinal BBMVs was determined by the rapid filtration method. […] Then, ice-cold buffer C (110 mM NaCl, 1 mM KH2PO4, and 10 mM HEPES (pH 7.5)) was added to each reaction mixture, which was immediately suctionfiltered through a Millipore filter. The filter was washed with buffer C, and each sample was then dissolved in a liquid scintillator. The amount of ^33PO4 uptake into BBMVs was measured using a liquid scintillation counter. […]

| Structure (SMILES) | Rate of uptake inhibition (%) (1 µM) |
| --- | --- |
| C[C@]12CCCN1N(Cc1ccc(OCCN3CCOCC3)c(F)c1F)C(=O)C(C(=O)Nc1ccc(Cl)cc1-c1ccc(C(F)(F)F)nc1)=C2O [Example 102] | 65% |
| CSc1ccc(-c2cc(C(F)(F)F)ccc2NC(=O)C2=C(O)[C@@]3(C)CCCN3N(Cc3ccc(OCCN4CCOCC4)c(F)c3F)C2=O)cn1 [Example 103] | 78% |
| CSc1ncc(-c2cc(C(F)(F)F)ccc2NC(=O)C2=C(O)[C@@]3(C)CCCN3N(Cc3ccc(OCCN4CCOCC4)c(F)c3F)C2=O)cn1 [Example 104] | 73% |
| CSc1ccc(-c2nc(C(F)(F)F)ccc2NC(=O)C2=C(O)[C@@]3(C)CCCN3N(Cc3cccc(F)c3F)C2=O)cn1 [Example 105] | 72% |
| C[C@]12CCCN1N(Cc1ccc(OCCN3CCOCC3)c(F)c1F)C(=O)C(C(=O)Nc1ccc(C(F)(F)F)nc1-c1cncc(C(F)(F)F)c1)=C2O [Example 106] | 79% |
| C[C@@]12CCCN1N(Cc1ccc(OCCN3CCOCC3)c(F)c1F)C(=O)C(C(=O)Nc1ccc(Cl)cc1-c1cc(C(F)(F)F)ncn1)=C2O.Cl [Example 107] | 54% |
| C[C@@]12CCCN1N(Cc1ccc(OCCN3CCOCC3)c(F)c1F)C(=O)C(C(=O)Nc1ccc(C(F)(F)F)cc1-c1cc(C(F)(F)F)ncn1)=C2O.Cl [Example 108] | 54% |
| Cc1ncc(-c2cc(C(F)(F)F)ccc2NC(=O)C2=C(O)[C@@]3(C)CCCN3N(Cc3cccc(F)c3F)C2=O)cc1C#N [Example 109, (4aR)-N-[2-(5-Cyano-6-methylpyridin-3-yl)-4-(trifluoromethyl)phenyl]-1-[(2,3-difluorophenyl)methyl]-4-hydroxy-4-methyl-2-oxo-6,7-dihydro-5H-pyrrolo[1.2-b]pyridazine-3-carboxamide] | 52% |
| CN(C)S(=O)(=O)N1CCC(c2cc(C(F)(F)F)ccc2NC(=O)C2=C(O)[C@@]3(C)CCCN3N(Cc3cccc(F)c3F)C2=O)CC1 [Example 110] | 57% |
| C[C@]12CCCN1N(Cc1cccc(F)c1F)C(=O)C(C(=O)Nc1ccc(C(F)(F)F)cc1-c1cnc(N3CC4(COC4)C3)c(C#N)c1)=C2O [Example 111, (4aR)-N-[2-[5-Cyano-6-(2-oxa-6-azaspiro[3.3]heptan-6-yl)pyridin-3-yl]-4-(trifluoromethyl)phenyl]-1-[(2,3-difluorophenyl)methyl]-4-hydroxy-4a-methyl-2-oxo-6.7-dihydro-5H-pyrrolo[1,2-b]pyridazine-3-carboxamide] | 56% |
| COC(=O)CN(C)c1ncc(-c2cc(C(F)(F)F)ccc2NC(=O)C2=C(O)[C@@]3(C)CCCN3N(Cc3cccc(F)c3F)C2=O)cc1C#N [Example 112, Methyl 2-[[5-[2-[[(4aR)-1-[(2,3-difluorophenyl)methyl]-4-hydroxy-4a-methyl-2-oxo-6,7-dihydro-5H-pyrrolo[1,2-b]pyridazine-3-carbonyl]aminol-5-(trifluoromethyl)phenyl]-3-cyanopyridin-2-yl-methylamino] acetate] | 43% |
| CSc1cc(-c2cc(C(F)(F)F)ccc2NC(=O)C2=C(O)[C@@]3(C)CCCN3N(Cc3cccc(F)c3F)C2=O)cnc1C#N [Example 113, (4aR)-N-[2-(6-Cyano-5-methylsulfanylpyridin-3-yl)-4-(trifluoromethyl)phenyl]-1-[(2,3-difluorophenyl)methyl]-4-hydroxy-4a-methyl-2-oxo-6,7-dihydro-5H-pyrrolo[1,2-b]pyridazine-3-carboxamide] | 84% |
| CSc1ccc(-c2cc(C(F)(F)F)ccc2NC(=O)C2=C(O)[C@@]3(C)CCCN3N(Cc3ccc(CCCCCCC(=O)O)c(F)c3F)C2=O)cn1 [Example 115, 7-[4-[[(4aR)-4-1-Hydroxy-4a-methyl-3-[[2-(6-methylsulfanylpyridin-3-yl)-4-(trifluoromethyl)phenyl]carbamoyl]-2-oxo-6,7-dihydro-5H-pyrrolo[1,2-b]pyridazin-1-yl]methyl]-2,3-difluorophenyl]heptanoate] | 85% |
| C[C@]12CCCN1N(Cc1ccc(CCCCCCC(=O)O)c(F)c1F)C(=O)C(C(=O)Nc1ccc(Cl)cc1-c1ccc(C(F)(F)F)nc1)=C2O [Example 116, 7-[4-[[(4aR)-3-[[4-Chloro-2-[6-(trifluoromethyl)pyridin-3-yl]phenyl]carbarnoyl]-4-hydroxy-4a-methyl-2-oxo-6,7-dihydro-5H-pyrrolo[1,2-b]pyridazin-1-yl]methyl]-2,3-difluorophenyl]heptanoate] | 72% |
| CSc1ccc(-c2cc(C(F)(F)F)ccc2NC(=O)C2=C(O)[C@@]3(C)CCCN3N(Cc3ccc(C#CCCCCC(=O)O)c(F)c3F)C2=O)cn1 [Example 117, 7-[4-[[(4aR)-4-Hydroxy-4a-methyl-3-[[2-(6-methylsulfanylpyridin-3-yl)-4-(trifluoromethyl)phenyl]carbamoyl]-2-oxo-6.7-dihydro-5H-pyrrolo[1.2-b]pyridazin-1-yl]methyl]-2,3-difluorophenyl]hept-6-ynoate] | 78% |
| CSc1ncc(-c2cc(C(F)(F)F)ccc2NC(=O)C2=C(O)[C@@]3(C)CCCN3N(Cc3ccc(C#CCCCCC(=O)O)c(F)c3F)C2=O)cn1 [Example 118] | 81% |
| C[C@]12CCCN1N(Cc1ccc(C#CCCCCC(=O)O)c(F)c1F)C(=O)C(C(=O)Nc1ccc(C(F)(F)F)cc1-c1cncc(C(F)(F)F)c1)=C2O [Example 119, 7-[4-[[(4aR)-4-Hydroxy-4a-methyl-2-oxo-3-[[4-(trifluoromethyl)-2-[5-(trifluoromethyl)pyridin-3-yl]phenyl]carbamoyl]-6.7-dihydro-5H-pyrrolo[1,2-b]pyridazin-1-yl]methyl]-2.3-difluorophenyl]hept-6-ynoate] | 71% |
| CSc1ccc(-c2cc(C(F)(F)F)ccc2NC(=O)C2=C(O)[C@@]3(C)CCCN3N(Cc3ccc(OCCCCOC[C@H](O)CO)c(F)c3F)C2=O)cn1 [Example 120, (4aR)-1-[[4-[4-[(2R)-2,3-Dihydroxypropoxy]butoxy]-2,3-difluorophenyl]methyl]-4-hydroxy-4a-methyl-N-[2-(6-methylsulfanylpyridin-3-yl)-4-(trifluoromethyl)phenyl]-2-oxo-6,7-dihydro-5H-pyrrolo[1,2-b]pyridazine-3-carboxamide] | 66% |
| C[C@]12CCCN1N(Cc1ccc(OCCCCOC[C@H](O)CO)c(F)c1F)C(=O)C(C(=O)Nc1ccc(Cl)cc1-c1ccc(C(F)(F)F)nc1)=C2O [Example 121, (4aR)-N-[4-Chloro-2-[6-(trifluoromethyl)pyridin-3-yl]phenyl]-1-[[4-[4-[(2R)-2,3-dihydroxypropoxy]butoxy]-2,3-difluorophenyl]methyl]-4-hydroxy-4a-methyl-2-oxo-6,7-dihydro-5H-pyrrolo[1,2-b]pyridazine-3-carboxamide] | 72% |
| C[C@]12CCCN1N(Cc1cccc(F)c1F)C(=O)C(C(=O)Nc1ccc(Br)cc1-c1ccc(Cl)nc1)=C2O [Example 122, (4aR)-N-[4-Bromo-2-(6-chloropyridin-3-yl)phenyl]-1-[(2,3-difluorophenyl)methyl]-4-hydroxy-4a-methyl-2-oxo-6,7-dihydro-5H-pyrrolo[1,2-b]pyridazine-3-carboxamide] | 82% |
| COc1cccc(-c2cc(C(F)(F)F)ccc2NC(=O)C2=C(O)[C@@]3(C)CCCN3N(Cc3ccc(C#CCOCCCCO)c(F)c3F)C2=O)c1OC [Example 123, (4aR)-1-[[2,3-Difluoro-4-[3-(4-hydroxybutoxy)prop-1-ynil]phenyl]methyl)-N-[2-(2.3-dimethoxyphenyl)-4-(trifluoromethyl)phenyl]-4-hydroxy-4a-methyl-2-oxo-6,7-dihydro-5H-pyrrolo[1,2-b]pyridazine-3-carboxamide] | 87% |
| C[C@]12CCCN1N(Cc1c(F)cc(C#CCCCCCOC[C@H](O)[C@@H](O)CO)cc1F)C(=O)C(C(=O)Nc1ccc(C(F)(F)F)cc1-c1ccc(C(F)(F)F)nc1)=C2O [Example 124] | 81% |
| C[C@]12CCCN1N(Cc1c(F)cc(CCCCCCCOC[C@H](O)[C@@H](O)CO)cc1F)C(=O)C(C(=O)Nc1ccc(C(F)(F)F)cc1-c1ccc(C(F)(F)F)nc1)=C2O [Example 125, (4aR)-1-[[2,6-Difluoro-4-[7-[(2S,3S)-2,3,4-trihydroxybutoxy]heptyl]phenyl]methyl]-4-hydroxy-4a-methyl-2-oxo-N-[4-(trifluoromethyl)-2-[6-(trifluoromethyl)pyridin-3-yl]phenyl]-6,7-dihydro-5H-pyrrolo[1,2-b]pyridazine-3-carboxamide] | 76% |
| C#Cc1ccc(CN2C(=O)C(C(=O)Nc3ccc(C(F)(F)F)cc3-c3cc(C(F)(F)F)ncn3)=C(O)[C@@]3(C)CCCN23)c(F)c1F [Example 126] | 71% |
| COc1cccc(-c2cc(C(F)(F)F)ccc2NC(=O)C2=C(O)[C@@]3(C)CCCN3N(Cc3ccc(C#CCOCCCO)c(F)c3F)C2=O)c1OC [Example 127] | 95% |
| C[C@]12CCCN1N(Cc1ccc(C#CCOCCCCO)c(F)c1F)C(=O)C(C(=O)Nc1ccc(C(F)(F)F)cc1-c1ccc(C(F)(F)F)nc1)=C2O [Example 128] | 72% |
| C[C@]12CCCN1N(Cc1c(F)cc(C#CC3(O)CCCC3)cc1F)C(=O)C(C(=O)Nc1ccc(C(F)(F)F)cc1-c1ccc(C(F)(F)F)nc1)=C2O [Example 130] | 72% |
| C[C@]12CCCN1N(Cc1ccc(C#CCN3CCCC3=O)c(F)c1F)C(=O)C(C(=O)Nc1ccc(Br)c(F)c1)=C2O [Example 131] | 87% |
| C[C@]12CCCN1N(Cc1c(F)cc(C#CCN3CCOCC3)cc1F)C(=O)C(C(=O)Nc1ccc(C(F)(F)F)cc1-c1ccc(C(F)(F)F)nc1)=C2O [Example 132] | 71% |
